Source: patent US20230365537A1, “POLO LIKE KINASE 4 INHIBITORS” (ORIC Pharmaceuticals, Inc., priority 2021, published 2023)

Experiments:
CHP-134 cells = assay: CHP134 CellTiter-Glo (CTG) Assay; type: cell-based; conditions: Homo sapiens, CHP-134, 120 h, 5 days, viable cells by CellTiter-Glo
Procedure, shortened: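 CHP-134 cells seeded at 200 cells/well for 16 h, then given nine 1:3 serial dilutions in quadruplicate at 37° C, 5% CO2. Viable cells measured by CellTiter-Glo luminescence after 5 days; IC50 calculated from curves.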

human recombinant PLK4 = human recombinant PLK4 (Homo sapiens (Human), UniProt O00444); assay: PLK4 Biochemical Assay (ADP-Glo); conditions: 0.5 nM PLK4, 8.0 µM ATP, 4.7 µM MBP, 6 hours at RT
human recombinant PLK4, sequence (O00444 whole entry): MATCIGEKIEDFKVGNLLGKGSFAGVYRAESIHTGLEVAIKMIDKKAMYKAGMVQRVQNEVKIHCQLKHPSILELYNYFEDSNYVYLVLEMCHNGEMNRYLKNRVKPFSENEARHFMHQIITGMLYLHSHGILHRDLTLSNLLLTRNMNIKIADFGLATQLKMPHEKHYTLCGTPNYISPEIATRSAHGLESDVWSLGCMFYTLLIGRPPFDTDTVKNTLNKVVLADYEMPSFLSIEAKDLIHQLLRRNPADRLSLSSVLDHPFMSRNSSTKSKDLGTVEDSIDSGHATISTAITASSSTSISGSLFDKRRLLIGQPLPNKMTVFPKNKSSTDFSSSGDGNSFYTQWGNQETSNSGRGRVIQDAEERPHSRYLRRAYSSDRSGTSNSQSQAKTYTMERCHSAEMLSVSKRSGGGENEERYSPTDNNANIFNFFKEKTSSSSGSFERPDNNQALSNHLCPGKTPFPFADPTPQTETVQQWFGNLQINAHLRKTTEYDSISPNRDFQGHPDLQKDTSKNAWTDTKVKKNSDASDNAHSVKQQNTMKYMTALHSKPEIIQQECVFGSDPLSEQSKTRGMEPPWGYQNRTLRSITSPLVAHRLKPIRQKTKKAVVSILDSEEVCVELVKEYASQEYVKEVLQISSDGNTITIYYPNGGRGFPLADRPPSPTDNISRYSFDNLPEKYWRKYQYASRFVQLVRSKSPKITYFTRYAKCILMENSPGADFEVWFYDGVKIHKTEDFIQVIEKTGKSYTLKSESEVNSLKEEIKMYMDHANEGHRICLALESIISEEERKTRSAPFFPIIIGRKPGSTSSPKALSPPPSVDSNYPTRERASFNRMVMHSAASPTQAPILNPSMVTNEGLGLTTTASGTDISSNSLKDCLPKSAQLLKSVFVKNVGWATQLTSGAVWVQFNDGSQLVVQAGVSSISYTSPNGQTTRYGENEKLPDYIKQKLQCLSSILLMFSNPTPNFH
Procedure, shortened: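 Recombinant human PLK4 (added at 1.0 nM) was preincubated 15 min at RT with compound in 50 mM HEPES pH 7.5, 10 mM MgCl2, 1 mM EGTA, 1 mM DTT, 0.01% Brij-35, 0.01% BSA. ADP formed was detected by ADP-Glo luminescence (40 min ATP depletion, 30 min detection). IC50 came from a four-parameter fit.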

[1] = target: human recombinant Aurora A (Homo sapiens (Human), UniProt O14965); assay: Aurora A Kinase Biochemical Assay (ADP-Glo); conditions: ratio of Aurora A IC50 to PLK4 IC50 (selectivity)
human recombinant Aurora A, sequence (O14965 whole entry): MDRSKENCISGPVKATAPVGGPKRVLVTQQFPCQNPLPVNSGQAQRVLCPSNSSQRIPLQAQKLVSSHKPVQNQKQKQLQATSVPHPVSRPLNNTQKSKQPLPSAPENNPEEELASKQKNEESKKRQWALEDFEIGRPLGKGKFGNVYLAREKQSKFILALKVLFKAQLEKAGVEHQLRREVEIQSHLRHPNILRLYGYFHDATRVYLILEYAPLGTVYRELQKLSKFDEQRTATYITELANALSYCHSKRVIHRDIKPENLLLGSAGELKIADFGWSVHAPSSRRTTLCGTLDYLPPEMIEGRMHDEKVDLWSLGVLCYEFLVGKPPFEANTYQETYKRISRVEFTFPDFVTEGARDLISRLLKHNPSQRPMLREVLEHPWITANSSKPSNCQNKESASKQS

[2] = target: human recombinant Aurora B (Homo sapiens (Human), UniProt Q96GD4); assay: Aurora B Kinase Biochemical Assay (ADP-Glo); conditions: ratio of Aurora B IC50 to PLK4 IC50 (selectivity)
human recombinant Aurora B, sequence (Q96GD4 whole entry): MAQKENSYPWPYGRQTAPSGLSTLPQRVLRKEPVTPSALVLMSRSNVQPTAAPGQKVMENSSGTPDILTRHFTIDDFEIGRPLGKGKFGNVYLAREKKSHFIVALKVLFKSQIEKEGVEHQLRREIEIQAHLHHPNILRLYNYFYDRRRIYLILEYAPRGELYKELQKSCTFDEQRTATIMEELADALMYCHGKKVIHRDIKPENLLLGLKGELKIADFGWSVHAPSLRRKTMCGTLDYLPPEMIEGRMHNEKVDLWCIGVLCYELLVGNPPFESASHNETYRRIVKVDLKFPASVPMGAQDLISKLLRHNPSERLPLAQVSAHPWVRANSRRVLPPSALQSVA
Procedure, shortened: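 Recombinant human Aurora B (20 nM in pH 7.5 HEPES buffer with MgCl2, EGTA, DTT, Brij-35, BSA) preincubated with compound 15 min at RT. ADP formed quantified by ADP-Glo luminescence after ATP depletion (40 min) and detection (30 min). IC50 from four-parameter non-linear regression.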

Q: With CCOc1cc(S(C)(=O)=O)ccc1Nc1n[nH]c2cc([C@@H]3C[C@@]34C(=O)Nc3ccc(OC)cc34)ccc12 [Example 272, (1R,2S)-2-{3-[2-Ethoxy-4-(methanesulfonyl)anilino]-1H-indazol-6-yl}-5′-methoxyspiro[cyclopropane-1,3′-indol]-2′(1′H)-one] as the compound, how does the IC50 (CHP-134 cells) read?
A: 77.8 nM

Q: What about the IC50 (human recombinant PLK4) of the same compound?
A: 0.833 nM

Q: What about the “[Aurora A IC50 (nM)]/[PLK4 IC50 (nM)]” value [1] of the same compound?
A: 3273.7094

Q: What about the “[Aurora B IC50 (nM)]/[PLK4 IC50 (nM)]” value [2] of the same compound?
A: 448.8595

Q: CCOc1cc(S(=O)(=O)N2CCN(C)CC2)cnc1Nc1n[nH]c2cc([C@@H]3C[C@@]34C(=O)Nc3ccc(OC)cc34)ccc12 [Example 273, (1R,2S)-2-(3-{[3-ethoxy-5-(4-methylpiperazine-1-salfonyl)pyridin-2-yl]amino)-1H-indazol-6-yl)-5′-methoxyspiro[cyclopropane-1,3′-indol]-2′(1′H)-one] was tested. Which IC50 (CHP-134 cells) did it give?
A: 1700 nM

Q: And the IC50 (human recombinant PLK4)?
A: 1.45 nM

Q: And the “[Aurora A IC50 (nM)]/[PLK4 IC50 (nM)]” value [1]?
A: 3483.1383

Q: And the “[Aurora B IC50 (nM)]/[PLK4 IC50 (nM)]” value [2]?
A: 2831.3833

Q: What does the source list for CCOc1cc(S(=O)(=O)CC)cnc1Nc1n[nH]c2cc([C@@H]3C[C@@]34C(=O)Nc3ccc(OC)cc34)ccc12 [Example 274, (1R,2S)-2-(3-{[5-(Ethanesulfonyl)-3-ethoxypyridin-2-yl]amino}-1H-indazol-6-yl)-5′-methoxyspiro[cyclopropane-1,3′-indol]-2′(1′H)-one]?
A: IC50 (CHP-134 cells): 72.3 nM; IC50 (human recombinant PLK4): 0.763 nM; [Aurora A IC50 (nM)]/[PLK4 IC50 (nM)] [1]: 2560.9436; [Aurora B IC50 (nM)]/[PLK4 IC50 (nM)] [2]: 961.3368

Q: How did the IC50 (CHP-134 cells) turn out when CCOc1cc(S(C)(=O)=O)cnc1Nc1n[nH]c2cc([C@@H]3C[C@@]34C(=O)Nc3ccc(Cl)cc34)ccc12 [Example 276, (1R,2S)-5′-chloro-2-(3-{[3-ethoxy-5-(methanesulfonyl)pyridin-2-yl]amino}-1H-indazol-6-yl)spiro[cyclopropane-1,3′-indol]-2′(1′H)-one] was run?
A: 4080 nM

Q: What about the IC50 (human recombinant PLK4) of the same compound?
A: 2.61 nM

Q: And the “[Aurora A IC50 (nM)]/[PLK4 IC50 (nM)]” value [1]?
A: 377.9648

Q: What about the “[Aurora B IC50 (nM)]/[PLK4 IC50 (nM)]” value [2] of the same compound?
A: 2173.2976
